Measured values as given in patent publication US8192962B2, “Processes for detecting toxic substances” (Daikin Industries, Ltd., priority 2001, dated 2012).

Test system: Metabolism protein genes
Test: DNA chip mRNA expression in yeast, metabolism protein genes (Table 7)
Type: cell-based, Saccharomyces cerevisiae S288C
In short: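 Cells were grown at 25° C. in YPD, treated at logarithmic phase for 2 h with a chemical at a concentration inhibiting growth but not causing death, and compared with untreated cultures. Labeled cDNA was hybridized to a DNA chip carrying all yeast genes, and the expression ratio was taken from scanner fluorescence.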

Na2As [(1)]
1.0: The level of expressed mRNA in the presence of chemical substance/The level of expressed mRNA in the absence of chemical substance (yeast gene YKL035W) | The level of expressed mRNA in the presence of chemical substance/The level of expressed mRNA in the absence of chemical substance (yeast gene YKL104C) | The level of expressed mRNA in the presence of chemical substance/The level of expressed mRNA in the absence of chemical substance (yeast gene YLL058W) | level of expressed mRNA in the presence/in the absence of chemical substance (yeast gene YLR056W) | The level of expressed mRNA in the presence of chemical substance/The level of expressed mRNA in the absence of chemical substance (yeast gene YNL106C) | The level of expressed mRNA in the presence of chemical substance/The level of expressed mRNA in the absence of chemical substance (yeast gene YNR019W) | The level of expressed mRNA in the presence of chemical substance/The level of expressed mRNA in the absence of chemical substance (yeast gene YOL126C) | The level of expressed mRNA in the presence of chemical substance/The level of expressed mRNA in the absence of chemical substance (yeast gene YOL153C) | level of expressed mRNA in the presence/in the absence of chemical substance (yeast gene YOR142W) | The level of expressed mRNA in the presence of chemical substance/The level of expressed mRNA in the absence of chemical substance (yeast gene YPL017C)
1.3: The level of expressed mRNA in the presence of chemical substance/The level of expressed mRNA in the absence of chemical substance (yeast gene YKL152C) | level of expressed mRNA in the presence/in the absence of chemical substance (yeast gene YLR081W) | The level of expressed mRNA in the presence of chemical substance/The level of expressed mRNA in the absence of chemical substance (yeast gene YLR180W) | level of expressed mRNA in the presence/in the absence of chemical substance (yeast gene YMR011W) | The level of expressed mRNA in the presence of chemical substance/The level of expressed mRNA in the absence of chemical substance (yeast gene YMR020W) | The level of expressed mRNA in the presence of chemical substance/The level of expressed mRNA in the absence of chemical substance (yeast gene YNL012W) | level of expressed mRNA in the presence/in the absence of chemical substance (yeast gene YPR165W)
0.6: The level of expressed mRNA in the presence of chemical substance/The level of expressed mRNA in the absence of chemical substance (yeast gene YKL215C) | The level of expressed mRNA in the presence of chemical substance/The level of expressed mRNA in the absence of chemical substance (yeast gene YMR296C) | The level of expressed mRNA in the presence of chemical substance/The level of expressed mRNA in the absence of chemical substance (yeast gene YNR033W)
0.9: level of expressed mRNA in the presence/in the absence of chemical substance (yeast gene YKL148C) | The level of expressed mRNA in the presence of chemical substance/The level of expressed mRNA in the absence of chemical substance (yeast gene YKL213C) | level of expressed mRNA in the presence/in the absence of chemical substance (yeast gene YKR034W) | level of expressed mRNA in the presence/in the absence of chemical substance (yeast gene YLR058C) | level of expressed mRNA in the presence/in the absence of chemical substance (yeast gene YLR089C) | level of expressed mRNA in the presence/in the absence of chemical substance (yeast gene YLR284C) | The level of expressed mRNA in the presence of chemical substance/The level of expressed mRNA in the absence of chemical substance (yeast gene YLR300W) | The level of expressed mRNA in the presence of chemical substance/The level of expressed mRNA in the absence of chemical substance (yeast gene YLR307W) | level of expressed mRNA in the presence/in the absence of chemical substance (yeast gene YML022W) | The level of expressed mRNA in the presence of chemical substance/The level of expressed mRNA in the absence of chemical substance (yeast gene YML070W) | level of expressed mRNA in the presence/in the absence of chemical substance (yeast gene YNL025C) | level of expressed mRNA in the presence/in the absence of chemical substance (yeast gene YOR128C) | The level of expressed mRNA in the presence of chemical substance/The level of expressed mRNA in the absence of chemical substance (yeast gene YOR347C) | level of expressed mRNA in the presence/in the absence of chemical substance (yeast gene YPL135W) | The level of expressed mRNA in the presence of chemical substance/The level of expressed mRNA in the absence of chemical substance (yeast gene YPR026W) | level of expressed mRNA in the presence/in the absence of chemical substance (yeast gene YPR183W)
10.6: The level of expressed mRNA in the presence of chemical substance/The level of expressed mRNA in the absence of chemical substance (yeast gene YJR155W)
1.9: The level of expressed mRNA in the presence of chemical substance/The level of expressed mRNA in the absence of chemical substance (yeast gene YMR105C) | level of expressed mRNA in the presence/in the absence of chemical substance (yeast gene YPL057C)
1.2: The level of expressed mRNA in the presence of chemical substance/The level of expressed mRNA in the absence of chemical substance (yeast gene YKL091C) | The level of expressed mRNA in the presence of chemical substance/The level of expressed mRNA in the absence of chemical substance (yeast gene YLR299W) | level of expressed mRNA in the presence/in the absence of chemical substance (yeast gene YPL148C)
10.1: The level of expressed mRNA in the presence of chemical substance/The level of expressed mRNA in the absence of chemical substance (yeast gene YOL165C)
8.6: The level of expressed mRNA in the presence of chemical substance/The level of expressed mRNA in the absence of chemical substance (yeast gene YNL331C)
0.7: level of expressed mRNA in the presence/in the absence of chemical substance (yeast gene YKL157W) | level of expressed mRNA in the presence/in the absence of chemical substance (yeast gene YLR006C) | level of expressed mRNA in the presence/in the absence of chemical substance (yeast gene YLR304C) | level of expressed mRNA in the presence/in the absence of chemical substance (yeast gene YLR372W) | The level of expressed mRNA in the presence of chemical substance/The level of expressed mRNA in the absence of chemical substance (yeast gene YMR008C) | level of expressed mRNA in the presence/in the absence of chemical substance (yeast gene YMR015C) | The level of expressed mRNA in the presence of chemical substance/The level of expressed mRNA in the absence of chemical substance (yeast gene YMR189W) | level of expressed mRNA in the presence/in the absence of chemical substance (yeast gene YMR261C) | The level of expressed mRNA in the presence of chemical substance/The level of expressed mRNA in the absence of chemical substance (yeast gene YNL169C) | level of expressed mRNA in the presence/in the absence of chemical substance (yeast gene YOR085W) | level of expressed mRNA in the presence/in the absence of chemical substance (yeast gene YOR176W) | The level of expressed mRNA in the presence of chemical substance/The level of expressed mRNA in the absence of chemical substance (yeast gene YOR336W) | level of expressed mRNA in the presence/in the absence of chemical substance (yeast gene YPL028W)
1.1: The level of expressed mRNA in the presence of chemical substance/The level of expressed mRNA in the absence of chemical substance (yeast gene YLR348C) | level of expressed mRNA in the presence/in the absence of chemical substance (yeast gene YLR354C) | The level of expressed mRNA in the presence of chemical substance/The level of expressed mRNA in the absence of chemical substance (yeast gene YNL104C) | level of expressed mRNA in the presence/in the absence of chemical substance (yeast gene YNL192W) | The level of expressed mRNA in the presence of chemical substance/The level of expressed mRNA in the absence of chemical substance (yeast gene YNL332W) | The level of expressed mRNA in the presence of chemical substance/The level of expressed mRNA in the absence of chemical substance (yeast gene YNR059W) | level of expressed mRNA in the presence/in the absence of chemical substance (yeast gene YOL086C) | level of expressed mRNA in the presence/in the absence of chemical substance (yeast gene YOL116W) | level of expressed mRNA in the presence/in the absence of chemical substance (yeast gene YOL156W) | level of expressed mRNA in the presence/in the absence of chemical substance (yeast gene YOR103C) | level of expressed mRNA in the presence/in the absence of chemical substance (yeast gene YOR251C) | level of expressed mRNA in the presence/in the absence of chemical substance (yeast gene YOR348C) | level of expressed mRNA in the presence/in the absence of chemical substance (yeast gene YPR113W)
0.5: level of expressed mRNA in the presence/in the absence of chemical substance (yeast gene YMR205C)
1.6: level of expressed mRNA in the presence/in the absence of chemical substance (yeast gene YKL060C) | The level of expressed mRNA in the presence of chemical substance/The level of expressed mRNA in the absence of chemical substance (yeast gene YMR271C)
1.4: The level of expressed mRNA in the presence of chemical substance/The level of expressed mRNA in the absence of chemical substance (yeast gene YLR273C) | level of expressed mRNA in the presence/in the absence of chemical substance (yeast gene YMR083W) | level of expressed mRNA in the presence/in the absence of chemical substance (yeast gene YOL108C) | level of expressed mRNA in the presence/in the absence of chemical substance (yeast gene YOR178C)
1.5: The level of expressed mRNA in the presence of chemical substance/The level of expressed mRNA in the absence of chemical substance (yeast gene YML054C) | The level of expressed mRNA in the presence of chemical substance/The level of expressed mRNA in the absence of chemical substance (yeast gene YNL231C)
0.8: level of expressed mRNA in the presence/in the absence of chemical substance (yeast gene YLR044C) | The level of expressed mRNA in the presence of chemical substance/The level of expressed mRNA in the absence of chemical substance (yeast gene YML100W) | level of expressed mRNA in the presence/in the absence of chemical substance (yeast gene YMR323W) | The level of expressed mRNA in the presence of chemical substance/The level of expressed mRNA in the absence of chemical substance (yeast gene YNL045W) | The level of expressed mRNA in the presence of chemical substance/The level of expressed mRNA in the absence of chemical substance (yeast gene YNL322C) | The level of expressed mRNA in the presence of chemical substance/The level of expressed mRNA in the absence of chemical substance (yeast gene YOL058W) | level of expressed mRNA in the presence/in the absence of chemical substance (yeast gene YOR002W) | The level of expressed mRNA in the presence of chemical substance/The level of expressed mRNA in the absence of chemical substance (yeast gene YOR099W) | level of expressed mRNA in the presence/in the absence of chemical substance (yeast gene YOR108W) | The level of expressed mRNA in the presence of chemical substance/The level of expressed mRNA in the absence of chemical substance (yeast gene YOR130C)
5.3: The level of expressed mRNA in the presence of chemical substance/The level of expressed mRNA in the absence of chemical substance (yeast gene YPR167C)
